Laboratory results as given in ChEMBL document CHEMBL5532758, “Deuterium labeling improves the therapeutic index of 3,3'-diselenodipropionic acid as an anticancer agent: insights from redox reactions” (RSC Med Chem, 2024).
Calls of active or inactive are those of the source. No cut-off for these calls is given here.

How the values were obtained:
[1] = Therapeutic index, ratio of IC50 for cytotoxicity against human WI-26 AV4 cells to IC50 for antiproliferative activity against human NCI-H3122 cells by MTT assay; assay type: toxicity, cell-based; settings: WI-26 AV4 cells versus NCI-H3122 cells, read-out: Ratio IC50
[2] = Drug reactivity with trichloromethyl peroxyl radical (CCl3O2.) assessed as rate constant by ABTS2- based competition assay; assay type: physicochemical
[3] = Therapeutic index, ratio of IC50 for cytotoxicity against human WI-26 AV4 cells to IC50 for antiproliferative activity against human A549 cells by MTT assay; assay type: toxicity, cell-based; settings: WI-26 AV4 cells versus A549 cells, read-out: Ratio IC50
[4] = test system: A549; experiment: (§1) Radiosensitization activity against human A549 cells assessed as potentiation of radiation-induced cytotoxicity by measuring dose modification factor at 0.5 uM pre-irradiated with gamma radiation at 4 Gy followed by incubation with drug and measured after 7 days by clonogenic assay relative to control; assay type: functional; settings: time 7 day
[5] = test system: A549; experiment: Antiproliferative activity against human A549 cells assessed as inhibition of cell proliferation incubated for 48 hrs by MTT assay; assay type: functional, cell-based; settings: A549, 48 h
[6] = Cytotoxicity against human WI-38 cells assessed as inhibition of cell proliferation incubated for 48 hrs by MTT assay; assay type: toxicity, cell-based
[7] = test system: GR; experiment: Reduction in intracellular activity of GR in human WI-38 cells at 150 uM incubated for 24 hrs relative to control; assay type: toxicity, cell-based
[8] = Therapeutic index, ratio of IC50 for cytotoxicity against human MCF10A cells to IC50 for antiproliferative activity against human NCI-H1975 cells by MTT assay; assay type: toxicity, cell-based; settings: MCF10A cells versus NCI-H1975 cells, read-out: Ratio IC50
[9] = Cytotoxicity against human MCF-10A cells assessed as inhibition of cell proliferation incubated for 48 hrs by MTT assay; assay type: toxicity, cell-based
[10] = Drug reactivity with H2O2 assessed as rate constant by absorbance based analysis; assay type: physicochemical
[11] = Therapeutic index, ratio of IC50 for cytotoxicity against human Intestine 407 cells to IC50 for antiproliferative activity against human A549 cells by MTT assay; assay type: toxicity, cell-based; settings: Intestine 407 cells versus A549 cells, read-out: Ratio IC50
[12] = Cytotoxicity against human Intestine 407 cells assessed as inhibition of cell proliferation incubated for 48 hrs by MTT assay; assay type: toxicity, cell-based
[13] = Therapeutic index, ratio of IC50 for cytotoxicity against human Intestine 407 cells to IC50 for antiproliferative activity against human NCI-H1975 cells by MTT assay; assay type: toxicity, cell-based; settings: Intestine 407 cells versus NCI-H1975 cells, read-out: Ratio IC50
[14] = Drug reactivity with Hypochlorous acid (HOCl) assessed as rate constant by CBA based competition assay; assay type: physicochemical
[15] = test system: A549; experiment: Anti-clonogenic activity against human A549 cells assessed as reduction in size and number of surviving clones incubated for 7 days by crystal violet staining method; assay type: functional, cell-based; settings: A549, 168 h
[16] = test system: GST; experiment: Reduction in intracellular activity of GST in human WI-38 cells at 150 uM incubated for 24 hrs relative to control; assay type: toxicity, cell-based
[17] = Cytotoxicity against human WI-26 AV4 cells assessed as inhibition of cell proliferation incubated for 48 hrs by MTT assay; assay type: toxicity, cell-based
[18] = Upregulation of TrxR1 mRNA expression in human WI-38 cells at 10 uM incubated for 6 hrs by real-time PCR analysis relative to control; assay type: functional
[19] = Therapeutic index, ratio of IC50 for cytotoxicity against human WI-38 cells to IC50 for antiproliferative activity against human NCI-H3122 cells by MTT assay; assay type: toxicity, cell-based; settings: WI-38 cells versus NCI-H3122 cells, read-out: Ratio IC50
[20] = Upregulation of GPx1 mRNA expression in human WI-38 cells at 10 uM incubated for 24 hrs by real-time PCR analysis relative to control; assay type: functional
[21] = test system: NCI-H1975; experiment: Antiproliferative activity against human NCI-H1975 cells assessed as inhibition of cell proliferation incubated for 48 hrs by MTT assay; assay type: functional, cell-based; settings: NCI-H1975, 48 h
[22] = Increase in GPx activity in human WI-38 cells at 10 uM incubated for 24 hrs relative to control; assay type: functional
[23] = test system: WI-38; experiment: Cytotoxicity against human WI-38 cells assessed as reduction in size and number of surviving clones incubated for 7 days by crystal violet staining method; assay type: toxicity, cell-based
[24] = Therapeutic index, ratio of IC50 for cytotoxicity against human WI-38 cells to IC50 for antiproliferative activity against human A549 cells by MTT assay; assay type: toxicity, cell-based; settings: WI-38 cells versus A549 cells, read-out: Ratio IC50
[25] = test system: WI-38; experiment: Radioprotective activity against human WI-38 cells assessed as inhibition of radiation-induced cytotoxicity by measuring dose modification factor at 0.5 uM incubated for 24 hrs followed by irradiation with gamma radiation at 2 to 12 Gy by clonogenic assay relative to control; assay type: functional
[26] = Upregulation of TrxR1 mRNA expression in human WI-38 cells at 10 uM incubated for 24 hrs by real-time PCR analysis relative to control; assay type: functional
[27] = Therapeutic index, ratio of IC50 for cytotoxicity against human MCF-10A cells to IC50 for antiproliferative activity against human NCI-H3122 cells by MTT assay; assay type: toxicity, cell-based; settings: MCF-10A cells versus NCI-H3122 cells, read-out: Ratio IC50
[28] = Therapeutic index, ratio of IC50 for cytotoxicity against human MCF-10A cells to IC50 for antiproliferative activity against human A549 cells by MTT assay; assay type: toxicity, cell-based; settings: MCF-10A cells versus A549 cells, read-out: Ratio IC50
[29] = test system: NCI-H3122; experiment: Antiproliferative activity against human NCI-H3122 cells assessed as inhibition of cell proliferation incubated for 48 hrs by MTT assay; assay type: functional, cell-based; settings: NCI-H3122, 48 h
[30] = Therapeutic index, ratio of IC50 for cytotoxicity against human WI-38 cells to IC50 for antiproliferative activity against human NCI-H1975 cells by MTT assay; assay type: toxicity, cell-based; settings: WI-38 cells versus NCI-H1975 cells, read-out: Ratio IC50
[31] = Therapeutic index, ratio of IC50 for cytotoxicity against human Intestine 407 cells to IC50 for antiproliferative activity against human NCI-H3122 cells by MTT assay; assay type: toxicity, cell-based; settings: Intestine 407 cells versus NCI-H3122 cells, read-out: Ratio IC50
[32] = Increase in TxrR activity in human WI-38 cells at 10 uM incubated for 24 hrs relative to control; assay type: functional
[33] = Therapeutic index, ratio of IC50 for cytotoxicity against human WI-26 AV4 cells to IC50 for antiproliferative activity against human NCI-H1975 cells by MTT assay; assay type: toxicity, cell-based; settings: WI-26 AV4 cells versus NCI-H1975 cells, read-out: Ratio IC50
[34] = test system: A549; experiment: as §1, with “at 4.5” for “at 4”; assay type: functional; settings: time 7 day
[35] = test system: WI-38; experiment: Upregulation of GPx1 mRNA expression in human WI-38 cells at 10 uM incubated for 6 hrs by real-time PCR analysis; assay type: functional, cell-based
[36] = test system: WI-38; experiment: Radioprotective activity against human WI-38 cells assessed as recovery of radiation-induced decrease in TrxR activity at 10 uM pretreated for 24 hrs followed by irradiation with gamma radiation for 24 hrs; assay type: functional, cell-based; settings: time 48.0 hrs
[37] = Drug reduction in DMSO-d6 in presence of 1 equiv. NAC by 77Se NMR spectroscopy; assay type: physicochemical
[38] = test system: WI-38; experiment: Radioprotective activity against human WI-38 cells assessed as recovery of radiation-induced decrease in GPx activity at 10 uM pretreated for 24 hrs followed by irradiation with gamma radiation for 24 hrs; assay type: functional, cell-based; settings: time 48.0 hrs

| Compound | selectivity ratio [1] | K [2] | selectivity ratio [3] | IC50 [5] | IC50 at 48 h [6] | inhibition at 24 h, 150 µM [7] | selectivity ratio [8] | IC50 at 48 h [9] | K [10] | selectivity ratio [11] | IC50 at 48 h [12] | selectivity ratio [13] | K [14] | IC50 [15] | inhibition at 24 h, 150 µM [16] | IC50 at 48 h [17] | fold change (FC) [18] | selectivity ratio [19] | fold change (FC) [20] | IC50 [21] | also measured |
| --- | --- | --- | --- | --- | --- | --- | --- | --- | --- | --- | --- | --- | --- | --- | --- | --- | --- | --- | --- | --- | --- |
| [2H]C([2H])([Se][Se]C([2H])([2H])C([2H])([2H])C(=O)O)C([2H])([2H])C(=O)O | 11.8 | 0.8 10^8/M/s | 36.2 | 15.2 µM | 1000 µM | 13% | 45.5 | 150 µM | 3.3 10^-2/M/s | 33.3 | 507 µM | 110 | 9.5 10^4/M/s | 0.9 µM | 8% | 550 µM | ~2.04 | 21.5 | ~1.69 | 4.6 µM | Ratio [4]: 0.83; fold change (FC) [22]: ~1.53; IC50 [23]: 35.5 µM; selectivity ratio [24]: 65.7; Ratio [25]: 1.16; fold change (FC) [26]: ~5.17; selectivity ratio [27]: 22.4; selectivity ratio [28]: 9.8; IC50 [29]: 46.5 µM; selectivity ratio [30]: 217; selectivity ratio [31]: 10.8; fold change (FC) [32]: ~1.71; selectivity ratio [33]: 120 |
| O=C(O)CC[Se][Se]CCC(=O)O | 7 | 1 10^8/M/s | 9.9 | 15.2 µM | 171 µM | 32% | 5.7 | 61.2 µM | 5.2 10^-2/M/s | 31.7 | 483 µM | 32.5 | 1.6 10^5/M/s | 1.2 µM | 24% | 151 µM | ~4.02 | 7.9 | ~1.73 | 10.6 µM | Ratio [34]: 0.87; Activity [35]: inactive; Activity ([35]; tested as the 2H-labelled form): inactive; Activity [36]: Active; Activity ([36]; tested as the 2H-labelled form): Active; Drug metabolism [37]: Metabolite_Notdetected; fold change (FC) [22]: ~1.34; IC50 [23]: 17.9 µM; selectivity ratio [24]: 11.2; Ratio [25]: 1.12; fold change (FC) [26]: ~6.06; selectivity ratio [27]: 2.8; selectivity ratio [28]: 4; IC50 [29]: 21.5 µM; Activity [38]: Active; Activity ([38]; tested as the 2H-labelled form): Active; selectivity ratio [30]: 16.1; selectivity ratio [31]: 3.2; fold change (FC) [32]: ~2; selectivity ratio [33]: 14.2 |
